# Experimental data published in ChEMBL document CHEMBL4609989, “Synthesis and antileishmanial activity of fluorinated rhodacyanine analogues: The 'fluorine-walk' analysis” (Bioorg Med Chem, 2020).
# Active and inactive are the calls of the source. No cut-off for these calls is given here.
# How the values were obtained:
# [1] = system: Leishmania martiniquensis; assay: Antileishmanial activity against Leishmania martiniquensis MHOM/MQ/92/MAR promastigote at 0.1 uM incubated for 72 hrs by resazurin dye based colorimetric assay relative to control; type: functional; details: for inhibition at 0.1 µM: Leishmania martiniquensis, MHOM/MQ/92/MAR, 72 h
# [2] = system: Leishmania martiniquensis; assay: Antileishmanial activity against Leishmania martiniquensis MHOM/MQ/92/MAR promastigote at 0.25 uM incubated for 72 hrs by resazurin dye based colorimetric assay relative to control; type: functional; details: for inhibition at 0.25 µM: Leishmania martiniquensis, MHOM/MQ/92/MAR, 72 h
# [3] = system: Leishmania orientalis; assay: Antileishmanial activity against Leishmania orientalis MHOM/TH/2010/PCM2 promastigote at 0.1 uM incubated for 72 hrs by resazurin dye based colorimetric assay relative to control; type: functional; details: for inhibition at 0.1 µM: Leishmania orientalis, MHOM/TH/2010/PCM2, 72 h
# [4] = system: Leishmania orientalis; assay: Antileishmanial activity against Leishmania orientalis MHOM/TH/2010/PCM2 promastigote at 0.25 uM incubated for 72 hrs by resazurin dye based colorimetric assay relative to control; type: functional; details: for inhibition at 0.25 µM: Leishmania orientalis, MHOM/TH/2010/PCM2, 72 h
# [5] = system: Leishmania orientalis; assay: Antileishmanial activity against Leishmania orientalis MHOM/TH/2010/PCM2 promastigote incubated for 72 hrs by resazurin dye based colorimetric assay; type: functional, organism-based
# [6] = system: Leishmania orientalis; assay: Antileishmanial activity against Leishmania orientalis MHOM/TH/2010/PCM2 axenic amastigotes at 0.25 uM incubated for 72 hrs by resazurin dye based colorimetric assay relative to control; type: functional; details: for inhibition at 0.25 µM: Leishmania orientalis, MHOM/TH/2010/PCM2, 72 h
# [7] = system: J774.A1; assay: Cytotoxicity against mouse J774A.1 cells assessed as reduction in cell viability at 0.25 uM incubated for 72 hrs by colorimetric assay relative to control; type: cell-based; details: j774.a1, 72 h
# [8] = system: J774.A1; assay: Cytotoxicity against mouse J774A.1 cells assessed as reduction in cell viability at 4.0 uM incubated for 72 hrs by colorimetric assay relative to control; type: cell-based; details: j774.a1, 72 h
# [9] = system: Leishmania martiniquensis; assay: Antileishmanial activity against Leishmania martiniquensis MHOM/MQ/92/MAR promastigote incubated for 72 hrs by resazurin dye based colorimetric assay; type: functional, organism-based
# [10] = system: Leishmania orientalis; assay: Antileishmanial activity against Leishmania orientalis MHOM/TH/2010/PCM2 axenic amastigotes incubated for 72 hrs by resazurin dye based colorimetric assay; type: functional, organism-based
# [11] = system: Leishmania martiniquensis; assay: Potency index, ratio of IC50 for miltefosine to IC50 for test compound for antileishmanial activity against Leishmania martiniquensis MHOM/MQ/92/MAR promastigote incubated for 72 hrs by resazurin dye based colorimetric assay; type: functional
# [12] = Leishmania orientalis, MHOM/TH/2010/PCM2, 72 h
# [13] = Leishmania martiniquensis, MHOM/MQ/92/MAR, 72 h
Compound,inhibition at 0.1 µM [1] [%],inhibition at 0.25 µM [2] [%],inhibition at 0.1 µM [3] [%],inhibition at 0.25 µM [4] [%],"IC50 [5, 12] [nM]",inhibition at 0.25 µM [6] [%],Activity [7],Activity [8] [%],"IC50 [9, 13] [nM]","IC50 [10, 12] [nM]",also measured
CCn1c(=O)/c(=C/C=C2\Sc3ccccc3N2C)s/c1=C\c1sc2cccc(F)c2[n+]1C.[Cl-],37.7,64.1,67.5,92.9,65,58.2,Non-Toxic,24.9,,,
CCn1c(=O)/c(=C/C=C2\Sc3ccccc3N2C)s/c1=C\c1sc2cc(F)c(F)cc2[n+]1C.[Cl-],80.6,91.2,61.6,89.5,114,92.8,Non-Toxic,18.6,106,77,
CCn1c(=O)/c(=C/C=C2\Sc3cccc(F)c3N2C)s/c1=C\c1sc2ccccc2[n+]1C.[Cl-],30,73,33,84.2,,40.2,Non-Toxic,13.4,,,
CCn1c(=O)/c(=C/C=C2\Sc3ccccc3N2C)s/c1=C\c1sc2ccccc2[n+]1C.[Cl-],21,70.8,11.5,81.5,302,36.8,Non-Toxic,19.2,658,909,
CCn1c(=O)/c(=C/C=C2\Sc3ccccc3N2C)s/c1=C\c1sc2cc(OC(F)(F)F)ccc2[n+]1C.[Cl-],8.7,27.1,12.5,60.9,,59.2,Non-Toxic,48.6,,,
C[C@@H]1[C@H](O)[C@@H](C)/C=C/C=C/C=C/C=C/C=C/C=C/C=C/[C@H](O[C@@H]2O[C@H](C)[C@@H](O)[C@H](N)[C@@H]2O)C[C@@H]2O[C@](O)(C[C@@H](O)C[C@@H](O)[C@H](O)CC[C@@H](O)C[C@@H](O)CC(=O)O[C@H]1C)C[C@H](O)[C@H]2C(=O)O [AMPHOTERICIN B],94.2,97.5,96.2,96.7,23,91.1,Non-Toxic,16.7,31,108,
CCn1c(=O)/c(=C/C=C2\Sc3cc(F)ccc3N2C)s/c1=C\c1sc2ccc(F)cc2[n+]1C.[Cl-],54.3,93.4,32.3,93,,93,Non-Toxic,20.7,142,85,
CCn1c(=O)/c(=C/C=C2\Sc3cc(C(F)(F)F)ccc3N2C)s/c1=C\c1sc2ccc(F)cc2[n+]1C.[Cl-],5.9,39.2,,33.3,,68.4,13.3%,52.2,,,inhibition [3]: inactive
CCn1c(=O)/c(=C/C=C2\Sc3cc(F)ccc3N2C)s/c1=C\c1sc2cc(F)ccc2[n+]1C.[Cl-],17.6,62.9,1.9,76,,62.1,Non-Toxic,46,,,
CCn1c(=O)/c(=C/C=C2\Sc3ccc(F)cc3N2C)s/c1=C\c1sc2ccccc2[n+]1C.[Cl-],76.9,89.2,50.1,90.4,133,92.2,Non-Toxic,37,139,134,
CCn1c(=O)/c(=C/C=C2\Sc3ccccc3N2C)s/c1=C\c1sc2c(F)cccc2[n+]1C.[Cl-],41.1,85.2,13.9,88.9,,42.9,Non-Toxic,88.5,,,
CCn1c(=O)/c(=C/C=C2\Sc3cc(F)ccc3N2C)s/c1=C\c1sc2ccccc2[n+]1C.[Cl-],40.3,87.8,60,96,88,91.2,Non-Toxic,61.8,,223,
CCCCCCCCCCCCCCCCOP(=O)([O-])OCC[N+](C)(C)C [MILTEFOSINE],,,,4,,24.9,7.3%,12.4,15800,,inhibition [1]: inactive; inhibition [2]: inactive; inhibition [3]: inactive
CCn1c(=O)/c(=C/C=C2\Sc3ccccc3N2C)s/c1=C\c1sc2ccc(F)cc2[n+]1C.Cc1ccc(S(=O)(=O)[O-])cc1,85.4,89.5,78.8,91.7,98,91,Non-Toxic,31.1,76,110,
CCn1c(=O)/c(=C/C=C2\Sc3ccccc3N2C)s/c1=C\c1sc2ccc(F)cc2[n+]1C.[Cl-],,,,,,,Non-Toxic,26.9,,,inhibition (INH) [1]: 82.8%; inhibition (INH) [2]: 89.3%; IC50 [9]: 85 nM; inhibition (INH) [3]: 66.2%; inhibition (INH) [4]: 91.7%; IC50 [5]: 104 nM; inhibition (INH) [6]: 86.5%; IC50 [10]: 80 nM; Ratio IC50 [11]: 200
CCn1c(=O)/c(=C/C=C2\Sc3ccccc3N2C)s/c1=C\c1sc2cc(F)ccc2[n+]1C.[Cl-],57.1,71.1,85.7,95.4,40,78.5,Non-Toxic,41.3,,200,
CCn1c(=O)/c(=C/C=C2\Sc3ccc(F)cc3N2C)s/c1=C\c1sc2ccc(F)cc2[n+]1C.[Cl-],56.4,79.8,57.5,81.5,161,87.9,Non-Toxic,13.8,,80,
CCn1c(=O)/c(=C/C=C2\Sc3c(F)cccc3N2C)s/c1=C\c1sc2ccccc2[n+]1C.[Cl-],56.1,92.7,,75.4,,47.9,Non-Toxic,72.8,272,,inhibition [3]: inactive
CCn1c(=O)/c(=C/C=C2\Sc3ccccc3N2C)s/c1=C\c1sc2cc(C(F)(F)F)ccc2[n+]1C.[Cl-],10.5,24.9,39,87.6,,71.1,0.5%,33.3,,,
CCn1c(=O)/c(=C/C=C2\Sc3ccc(F)cc3N2C)s/c1=C\c1sc2cc(F)ccc2[n+]1C.[Cl-],43.9,75.9,20.4,79.3,,88.9,Non-Toxic,21,,81,
